From patent US12065426B2, “Crystalline form of nilotinib hydrochloride, process for its preparation and pharmaceutical composition containing the same” (Laurus Labs Limited, priority 2018, dated 2024)
Like-named read-outs stand apart in the source and are kept apart here.

Tests used:
[1] = Saturation solubility studies in various mediums; conditions: for solubility: 25 °C, thermodynamic from solid
Description: Saturation solubility studies were conducted in various mediums for nilotinib hydrochloride Form L of the present invention and nilotinib hydrochloride monohydrate Form B (U.S. Pat. No. 8,415,363).

[2] = Chemical and polymorphic stability study at different storage conditions (HPLC, XRD); format: physicochemical; set-up: key to 5-Methyl isomer (Imp-4) / 4-Ethyl analogue (Imp-5) / Any unspecified impurity / Total Impurities / Methyl ester impurity (Imp-2) / Acid impurity (Imp-1): ND: Not detected; BDRL: Below disregard limit
Excerpt: Nilotinib hydrochloride Form L is packed in a transparent Low density polyethylene (LDPE) bag with a strip seal along with nitrogen filling, which is again kept in a second transparent low density polyethylene bag with strip seal. The LDPE bag is kept in to a triple laminated sunlight barrier with heat seal followed by in a high density polyethylene container and well closed.
Alternatively, Nilotinib hydrochloride Form L is packed in a HM LDPE bag in nitrogen atmosphere, fill the bag with nitrogen and seal it with vacuum sealer. Place this bag in another HM LDPE bag, fill with nitrogen, keep one silica gel packet between two bags and seal the bag with vacuum sealer. Place this in a triple laminated sunlight barrier bag, seal the bag with vacuum sealer; and finally kept it in a HDPE container.
The Nilotinib hydrochloride Form L was analysed using High Performance Liquid Chromatography (“HPLC”) with the conditions as tabulated below: […]

[3] = Thermogravimetric analysis (TGA) / loss on drying; format: physicochemical; conditions: for Thermogravimetric (weight loss %): 10° C./minute, RT to 80° C.
Description: Thermogravimetry analysis (TGA) data in the present invention was acquired using TA instruments TGA Q500 thermogravimetric analyser with universal Analysis 2000 software using the following conditions; Heating rate: 10° C./min; Temperature range: 28±2° C.-250° C.; Nitrogen flow: 60 mL/minute.

[4] = Variable temperature powder X-ray diffraction (VT-PXRD); format: physicochemical; conditions: 25-300° C., heating rate 10° C./mins
[5] = Dynamic vapour sorption (DVS); format: physicochemical
Description: Dynamic vapour sorption (DVS) data in the present invention was acquired using TA instruments TA Q5000SA Dynamic vapour sorption analyser with Universal Analysis 2000 software under following parameters; Sample was initially equilibrated at 0% RT for 120 mins; humidity range: 10 to 90%; humidity step size: 10%; Equilibration condition: change in mass less than 0.01% within 5 mins.

[6] = from table 22 of U.S. Pat. No. 8,415,363, cited from earlier work

Cc1cn(-c2cc(NC(=O)c3ccc(C)c(Nc4nccc(-c5cccnc5)n4)c3)cc(C(F)(F)F)c2)cn1.Cl [Form L, 4-methyl-N-[3-(4-methyl-1H-imidazol-1-yl)-5-(trifluoromethyl)phenyl]-3-[[4-(3-pyridinyl)-2-pyrimidinyl]amino]-benzamide hydrochloride]
solubility ([1]; 0.01N HCl, simulated gastric fluid): 170 µg/mL | solubility ([1]; 0.1N HCl, simulated gastric fluid): 1860 µg/mL | solubility ([1]; ethanol, organic solvent or mixture): 16300 µg/mL | solubility ([1]; isopropanol, organic solvent or mixture): 2740 µg/mL | solubility ([1]; phosphate buffer, pH 6.8, aqueous buffer): 20 µg/mL | Solubility compared to Form B ([1]; various mediums): better solubility | solubility ([1]; water): 160 µg/mL | 4-Ethyl analogue (Imp-5) ([2]; 25 ± 2° C./60 ± 5% RH, 2 month): BDRL | 5-Methyl isomer (Imp-4) ([2]; 25 ± 2° C./60 ± 5% RH, 2 month): BDRL | Any unspecified impurity ([2]; 25 ± 2° C./60 ± 5% RH, 2 month): BDRL | Description ([2]; 25 ± 2° C./60 ± 5% RH, 2 month): Slightly yellow | Solid form by XRD ([2]; 25 ± 2° C./60 ± 5% RH, 2 month): Complies | Total Impurities ([2]; 25 ± 2° C./60 ± 5% RH, 2 month): BDRL | 4-Ethyl analogue (Imp-5) ([2]; 25 ± 2° C./60 ± 5% RH, Initial): BDRL | Any unspecified impurity ([2]; 25 ± 2° C./60 ± 5% RH, Initial): BDRL | Description ([2]; 25 ± 2° C./60 ± 5% RH, Initial): Slightly yellow | Solid form by XRD ([2]; 25 ± 2° C./60 ± 5% RH, Initial): Complies | Total Impurities ([2]; 25 ± 2° C./60 ± 5% RH, Initial): BDRL | 4-Ethyl analogue (Imp-5) ([2]; 40 ± 2° C./75 ± 5% RH, 1 month): BDRL | 5-Methyl isomer (Imp-4) ([2]; 40 ± 2° C./75 ± 5% RH, 1 month): BDRL | Acid impurity (Imp-1) ([2]; 40 ± 2° C./75 ± 5% RH, 1 month): BDRL | Any unspecified impurity ([2]; 40 ± 2° C./75 ± 5% RH, 1 month): BDRL | Description ([2]; 40 ± 2° C./75 ± 5% RH, 1 month): Slightly yellow | Methyl ester impurity (Imp-2) ([2]; 40 ± 2° C./75 ± 5% RH, 1 month): BDRL | Solid form by XRD ([2]; 40 ± 2° C./75 ± 5% RH, 1 month): Complies | Total Impurities ([2]; 40 ± 2° C./75 ± 5% RH, 1 month): BDRL | 4-Ethyl analogue (Imp-5) ([2]; 40 ± 2° C./75 ± 5% RH, 2 month): BDRL | 5-Methyl isomer (Imp-4) ([2]; 40 ± 2° C./75 ± 5% RH, 2 month): BDRL | Any unspecified impurity ([2]; 40 ± 2° C./75 ± 5% RH, 2 month): BDRL | Description ([2]; 40 ± 2° C./75 ± 5% RH, 2 month): Slightly yellow | Solid form by XRD ([2]; 40 ± 2° C./75 ± 5% RH, 2 month): Complies | Total Impurities ([2]; 40 ± 2° C./75 ± 5% RH, 2 month): BDRL | 4-Ethyl analogue (Imp-5) ([2]; 40 ± 2° C./75 ± 5% RH, Initial): BDRL | Any unspecified impurity ([2]; 40 ± 2° C./75 ± 5% RH, Initial): BDRL | Description ([2]; 40 ± 2° C./75 ± 5% RH, Initial): Slightly yellow | Solid form by XRD ([2]; 40 ± 2° C./75 ± 5% RH, Initial): Complies | Total Impurities ([2]; 40 ± 2° C./75 ± 5% RH, Initial): BDRL | Polymorphic and chemical identity on storage ([2]; different storage conditions, at least up to two months): retained the same polymorphic and chemical identity | Thermogravimetric (weight loss %) [3]: 1.6 (RT to 80°) % | Loss on drying ([3]; 30° C.-100° C.): 2.3% | Loss on drying ([3]; 100° C.-220° C.): 7.3% | Temperature up to which characteristic PXRD is retained [4]: about 140 °C | % Weight change ([5]; Adsorption, 10 % RH): 0.5405% | % Weight change ([5]; Adsorption, 20 % RH): 0.7918% | % Weight change ([5]; Adsorption, 30 % RH): 0.9954% | % Weight change ([5]; Adsorption, 40 % RH): 1.170% | % Weight change ([5]; Adsorption, 50 % RH): 1.350% | % Weight change ([5]; Adsorption, 60 % RH): 1.544% | % Weight change ([5]; Adsorption, 70 % RH): 1.904% | % Weight change ([5]; Adsorption, 80 % RH): 2.661% | % Weight change ([5]; Adsorption, 90 % RH): 5.414% | % Weight change ([5]; Desorption, 10 % RH): 1.303% | % Weight change ([5]; Desorption, 20 % RH): 1.751% | % Weight change ([5]; Desorption, 30 % RH): 2.098% | % Weight change ([5]; Desorption, 40 % RH): 2.855% | % Weight change ([5]; Desorption, 50 % RH): 4.190% | % Weight change ([5]; Desorption, 60 % RH): 4.453% | % Weight change ([5]; Desorption, 70 % RH): 4.875% | % Weight change ([5]; Desorption, 80 % RH): 5.134% | % Weight change ([5]; Desorption, 90 % RH): 5.414% | Water pick up ([5]; at 80% RH at RT): about 2.7% | Maximum absorption of water ([5]; at 90% RH): about 5.4% | Difference in water content between absorption and desorption ([5]; between 50% and 60% RH at room temperature): about 3% | Hygroscopicity ([5]; from water pick up at 80% RH at RT): moderately hygroscopic

Cc1cn(-c2cc(NC(=O)c3ccc(C)c(Nc4nccc(-c5cccnc5)n4)c3)cc(C(F)(F)F)c2)cn1.Cl.O [Form B, reference compound]
Saturation solubility ([1]; 0.01N HCl, approximately at 25° C.): 80 µg/mL | Saturation solubility ([1]; 0.1N HCl, approximately at 25° C.): 940 µg/mL | Saturation solubility ([1]; Ethanol, approximately at 25° C.): 3690 µg/mL | Saturation solubility ([1]; Isopropanol, approximately at 25° C.): 1930 µg/mL | Saturation solubility ([1]; Phosphate buffer, pH 6.8, approximately at 25° C.): Below detection | Saturation solubility ([1]; Water, approximately at 25° C.): 170 µg/mL | Loss on drying ([6]; 30° C.-100° C.): 1.00% | Loss on drying ([6]; 100° C.-220° C.): 3.02% | Thermogravimetric (weight loss %) [3]: 0.91 (RT to 80° C.) %
